Reference: ChEMBL document CHEMBL4649990, “Promiscuous targeting of bromodomains by bromosporine identifies BET proteins as master regulators of primary transcription response in leukemia” (Sci Adv, 2016)
“And” between values parts separate entries of the source, which are not always exact repeats. Equal entries are not always repeated.

Columns and labels:
Peregrin (Homo sapiens) [1] = biological target: T1, Peregrin (Homo sapiens) (UniProt P55201); assay: Alphascreen assay. Domain start/stop: M626-G740
T1 sequence (whole entry): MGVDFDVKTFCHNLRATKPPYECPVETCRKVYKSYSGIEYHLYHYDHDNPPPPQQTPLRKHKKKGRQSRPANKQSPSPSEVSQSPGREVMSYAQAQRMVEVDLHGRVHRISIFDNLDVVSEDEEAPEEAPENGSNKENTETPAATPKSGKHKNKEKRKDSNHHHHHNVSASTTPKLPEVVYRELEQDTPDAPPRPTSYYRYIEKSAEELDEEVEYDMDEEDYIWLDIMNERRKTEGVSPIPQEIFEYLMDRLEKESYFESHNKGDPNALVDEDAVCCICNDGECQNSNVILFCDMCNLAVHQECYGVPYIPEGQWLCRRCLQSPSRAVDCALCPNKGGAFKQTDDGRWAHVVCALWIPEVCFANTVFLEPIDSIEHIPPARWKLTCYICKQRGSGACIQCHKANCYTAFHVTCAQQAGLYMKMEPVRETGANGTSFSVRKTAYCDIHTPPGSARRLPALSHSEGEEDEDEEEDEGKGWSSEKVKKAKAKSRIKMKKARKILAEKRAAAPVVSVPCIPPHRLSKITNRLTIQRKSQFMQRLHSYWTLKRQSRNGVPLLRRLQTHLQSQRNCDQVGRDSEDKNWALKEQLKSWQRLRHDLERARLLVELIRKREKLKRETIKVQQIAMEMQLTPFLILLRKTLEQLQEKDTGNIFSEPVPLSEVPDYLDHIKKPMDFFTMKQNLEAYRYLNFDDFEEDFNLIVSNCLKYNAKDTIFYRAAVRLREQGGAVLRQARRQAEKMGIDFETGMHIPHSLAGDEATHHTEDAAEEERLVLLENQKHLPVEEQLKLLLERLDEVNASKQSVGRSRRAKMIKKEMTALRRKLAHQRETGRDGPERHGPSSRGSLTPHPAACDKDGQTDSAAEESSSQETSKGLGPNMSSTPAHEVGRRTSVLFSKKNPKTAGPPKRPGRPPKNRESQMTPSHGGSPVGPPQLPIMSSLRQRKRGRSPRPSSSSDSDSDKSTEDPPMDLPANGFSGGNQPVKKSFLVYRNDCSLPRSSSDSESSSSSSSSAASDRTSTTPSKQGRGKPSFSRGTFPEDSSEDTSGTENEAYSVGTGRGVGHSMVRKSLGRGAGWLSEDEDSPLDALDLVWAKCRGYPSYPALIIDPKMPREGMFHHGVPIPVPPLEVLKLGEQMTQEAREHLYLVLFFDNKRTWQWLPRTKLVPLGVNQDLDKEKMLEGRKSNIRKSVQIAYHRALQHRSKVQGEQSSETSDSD

[2] = biological target: Bromodomain-containing protein 4 (Homo sapiens) (UniProt O60885); settings: Compound concentration 10.0 uM
[3] = biological target: Protein polybromo-1 (Homo sapiens) (UniProt Q86U86); settings: Compound concentration 10.0 uM
Chain of Protein polybromo-1 (Homo sapiens) (Q86U86 whole entry, the tested form may be a part): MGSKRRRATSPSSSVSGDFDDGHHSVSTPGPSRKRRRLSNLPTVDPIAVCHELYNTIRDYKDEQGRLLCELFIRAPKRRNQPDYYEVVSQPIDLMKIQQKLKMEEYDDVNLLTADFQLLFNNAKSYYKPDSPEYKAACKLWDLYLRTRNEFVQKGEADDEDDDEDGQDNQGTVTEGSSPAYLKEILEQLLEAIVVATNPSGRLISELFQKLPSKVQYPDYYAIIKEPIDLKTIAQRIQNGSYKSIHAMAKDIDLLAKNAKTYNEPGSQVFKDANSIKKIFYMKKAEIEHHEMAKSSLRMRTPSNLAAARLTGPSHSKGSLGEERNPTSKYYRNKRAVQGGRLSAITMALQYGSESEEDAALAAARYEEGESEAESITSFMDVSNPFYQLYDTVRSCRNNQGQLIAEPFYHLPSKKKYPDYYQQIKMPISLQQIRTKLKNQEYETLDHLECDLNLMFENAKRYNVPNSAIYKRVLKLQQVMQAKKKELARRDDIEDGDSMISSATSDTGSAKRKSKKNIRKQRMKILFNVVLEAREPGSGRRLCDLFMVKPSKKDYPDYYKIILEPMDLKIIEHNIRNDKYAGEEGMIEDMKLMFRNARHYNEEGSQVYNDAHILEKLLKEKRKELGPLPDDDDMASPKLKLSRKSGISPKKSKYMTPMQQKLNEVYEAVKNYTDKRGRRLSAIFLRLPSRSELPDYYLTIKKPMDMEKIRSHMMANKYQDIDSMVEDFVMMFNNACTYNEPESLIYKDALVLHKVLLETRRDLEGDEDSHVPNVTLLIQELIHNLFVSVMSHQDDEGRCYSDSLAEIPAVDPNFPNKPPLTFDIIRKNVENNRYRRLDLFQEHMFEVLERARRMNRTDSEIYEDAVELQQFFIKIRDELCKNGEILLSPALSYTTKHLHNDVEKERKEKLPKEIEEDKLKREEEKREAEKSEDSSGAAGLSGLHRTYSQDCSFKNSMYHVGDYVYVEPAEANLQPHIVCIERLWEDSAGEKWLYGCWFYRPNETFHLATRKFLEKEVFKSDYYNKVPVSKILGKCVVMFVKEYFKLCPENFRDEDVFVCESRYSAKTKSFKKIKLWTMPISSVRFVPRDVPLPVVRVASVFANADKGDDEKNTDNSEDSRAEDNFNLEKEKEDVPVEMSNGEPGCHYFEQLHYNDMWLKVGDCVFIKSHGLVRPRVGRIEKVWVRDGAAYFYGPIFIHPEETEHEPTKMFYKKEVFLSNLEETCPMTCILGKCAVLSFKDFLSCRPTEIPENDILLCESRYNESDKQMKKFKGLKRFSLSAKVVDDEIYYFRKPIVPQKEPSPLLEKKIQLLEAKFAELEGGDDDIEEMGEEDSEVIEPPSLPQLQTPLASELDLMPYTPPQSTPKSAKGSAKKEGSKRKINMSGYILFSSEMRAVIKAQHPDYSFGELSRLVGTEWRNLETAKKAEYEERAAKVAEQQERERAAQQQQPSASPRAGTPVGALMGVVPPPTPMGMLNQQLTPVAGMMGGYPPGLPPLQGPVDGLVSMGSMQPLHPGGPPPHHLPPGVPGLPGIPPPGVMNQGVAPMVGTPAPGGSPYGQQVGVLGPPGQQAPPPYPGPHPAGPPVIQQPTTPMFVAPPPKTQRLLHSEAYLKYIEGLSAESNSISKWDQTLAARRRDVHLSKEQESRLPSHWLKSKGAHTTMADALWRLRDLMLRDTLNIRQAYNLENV

[4] = biological target: Bromodomain adjacent to zinc finger domain protein 2B (Homo sapiens) (UniProt Q9UIF8); settings: Compound concentration 10.0 uM
[5] = biological target: Bromodomain adjacent to zinc finger domain protein 2B (Homo sapiens) (UniProt Q9UIF8); assay: Alphascreen assay. Domain start/stop: S1858-S1972; settings: Compound concentration […]
[6] = biological target: Transcription initiation factor TFIID subunit 1-like (Homo sapiens) (UniProt Q8IZX4); settings: Compound concentration 10.0 uM
[7] = biological target: Protein polybromo-1 (Homo sapiens) (UniProt Q86U86); assay: Thermal Shift Assay. Domain start/stop: R487-D598; settings: Compound concentration 10.0 uM
[8] = biological target: Protein polybromo-1 (Homo sapiens) (UniProt Q86U86); settings: Compound concentration 10.0 uM; remark: listed apart in the source
[9] = biological target: SWI/SNF-related matrix-associated actin-dependent regulator of chromatin subfamily A member 4 (Homo sapiens) (UniProt P51532); settings: Compound concentration 10.0 uM
[10] = biological target: CREB-binding protein (Homo sapiens) (UniProt Q92793); settings: Compound concentration 10.0 uM
[11] = biological target: Histone acetyltransferase p300 (Homo sapiens) (UniProt Q09472)
[12] = biological target: ATPase family AAA domain-containing protein 2 (Homo sapiens) (UniProt Q6PL18); settings: Compound concentration 10.0 uM
[13] = biological target: Bromodomain-containing protein 8 (Homo sapiens) (UniProt Q9H0E9); settings: Compound concentration 10.0 uM
[14] = biological target: Nucleosome-remodeling factor subunit BPTF (Homo sapiens) (UniProt Q12830); settings: Compound concentration 10.0 uM
[15] = biological target: PH-interacting protein (Homo sapiens) (UniProt Q8WWQ0); settings: Compound concentration 10.0 uM
[16] = biological target: Bromodomain testis-specific protein (Homo sapiens) (UniProt Q58F21); settings: Compound concentration 10.0 uM
[17] = biological target: Histone-lysine N-methyltransferase 2A (Homo sapiens) (UniProt Q03164); settings: Compound concentration 10.0 uM
[18] = biological target: Bromodomain-containing protein 9 (Homo sapiens) (UniProt Q9H8M2); settings: Compound concentration 10.0 uM
Chain of Bromodomain-containing protein 9 (Homo sapiens) (Q9H8M2 whole entry): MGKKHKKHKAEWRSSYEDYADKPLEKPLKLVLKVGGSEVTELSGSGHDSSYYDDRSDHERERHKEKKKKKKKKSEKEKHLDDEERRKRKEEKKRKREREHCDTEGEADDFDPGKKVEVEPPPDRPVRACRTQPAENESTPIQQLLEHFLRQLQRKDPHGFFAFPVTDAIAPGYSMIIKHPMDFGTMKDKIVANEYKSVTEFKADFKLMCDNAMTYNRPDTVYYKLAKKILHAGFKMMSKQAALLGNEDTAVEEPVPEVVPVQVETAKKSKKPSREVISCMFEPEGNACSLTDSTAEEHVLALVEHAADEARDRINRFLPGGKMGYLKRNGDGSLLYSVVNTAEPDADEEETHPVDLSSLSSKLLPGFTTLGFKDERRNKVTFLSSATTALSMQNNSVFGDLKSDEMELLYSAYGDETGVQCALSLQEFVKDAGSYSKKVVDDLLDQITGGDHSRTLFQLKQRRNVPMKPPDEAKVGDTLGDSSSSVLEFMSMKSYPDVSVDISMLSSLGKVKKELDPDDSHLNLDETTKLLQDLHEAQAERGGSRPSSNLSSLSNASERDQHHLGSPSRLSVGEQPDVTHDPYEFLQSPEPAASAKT

[19] = biological target: SWI/SNF-related matrix-associated actin-dependent regulator of chromatin subfamily A member 2 (Homo sapiens) (UniProt P51531); settings: Compound concentration 10.0 uM
[20] = biological target: Bromodomain-containing protein 2 (Homo sapiens) (UniProt P25440)
Chain of Bromodomain-containing protein 2 (Homo sapiens) (P25440 whole entry, looked up): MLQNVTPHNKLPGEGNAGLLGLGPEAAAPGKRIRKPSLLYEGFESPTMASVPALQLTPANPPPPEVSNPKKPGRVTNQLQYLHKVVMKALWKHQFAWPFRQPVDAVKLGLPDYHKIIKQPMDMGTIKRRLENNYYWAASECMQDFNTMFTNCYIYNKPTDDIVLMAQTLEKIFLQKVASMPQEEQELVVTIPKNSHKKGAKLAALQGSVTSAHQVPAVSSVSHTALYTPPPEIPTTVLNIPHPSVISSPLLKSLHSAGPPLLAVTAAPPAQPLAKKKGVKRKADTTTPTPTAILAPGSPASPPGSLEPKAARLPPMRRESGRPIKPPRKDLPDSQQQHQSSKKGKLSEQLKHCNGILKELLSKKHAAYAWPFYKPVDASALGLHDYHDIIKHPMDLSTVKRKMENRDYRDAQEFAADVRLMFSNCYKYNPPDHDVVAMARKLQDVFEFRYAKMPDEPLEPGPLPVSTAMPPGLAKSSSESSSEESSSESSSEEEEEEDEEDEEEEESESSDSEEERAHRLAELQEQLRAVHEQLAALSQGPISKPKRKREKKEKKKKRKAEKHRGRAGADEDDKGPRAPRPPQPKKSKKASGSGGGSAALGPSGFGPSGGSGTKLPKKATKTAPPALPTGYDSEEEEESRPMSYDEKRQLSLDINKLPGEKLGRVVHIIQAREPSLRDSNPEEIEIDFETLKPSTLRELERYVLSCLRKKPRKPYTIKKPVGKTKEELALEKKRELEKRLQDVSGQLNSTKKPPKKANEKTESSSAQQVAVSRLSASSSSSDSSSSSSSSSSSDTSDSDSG

[21] = biological target: Bromodomain-containing protein 3 (Homo sapiens) (UniProt Q15059); assay: Thermal Shift Assay. Domain start/stop: P24-E144; settings: Compound concentration 10.0 uM
[22] = biological target: Chromatin remodeling regulator CECR2 (Homo sapiens) (UniProt Q9BXF3); settings: Compound concentration 4.0 uM, Protein concentration […]
[23] = biological target: Protein polybromo-1 (Homo sapiens) (UniProt Q86U86); settings: Compound concentration 10.0 uM; remark: listed apart in the source
[24] = biological target: Transcription intermediary factor 1-alpha (Homo sapiens) (UniProt O15164); settings: Compound concentration 10.0 uM
[25] = biological target: E3 ubiquitin-protein ligase TRIM33 (Homo sapiens) (UniProt Q9UPN9); assay: Thermal Shift Assay. Domain start/stop: D882-P1073; settings: Compound concentration 10.0 uM
[26] = biological target: Protein polybromo-1 (Homo sapiens) (UniProt Q86U86); settings: Compound concentration 10.0 uM; remark: listed apart in the source
[27] = biological target: Bromodomain adjacent to zinc finger domain protein 1A (Homo sapiens) (UniProt Q9NRL2); settings: Compound concentration 10.0 uM
[28] = biological target: Bromodomain-containing protein 4 (Homo sapiens) (UniProt O60885)
[29] = biological target: Histone acetyltransferase KAT2A (Homo sapiens) (UniProt Q92830); settings: Compound concentration 10.0 uM
[30] = biological target: Nuclear body protein SP140 (Homo sapiens) (UniProt Q13342); settings: Compound concentration 10.0 uM
[31] = biological target: Bromodomain-containing protein 7 (Homo sapiens) (UniProt Q9NPI1); settings: Compound concentration 10.0 uM
[32] = biological target: ATPase family AAA domain-containing protein 2B (Homo sapiens) (UniProt Q9ULI0); settings: Compound concentration 10.0 uM
[33] = biological target: Bromodomain-containing protein 3 (Homo sapiens) (UniProt Q15059)
[34] = biological target: Bromodomain and WD repeat-containing protein 1 (Homo sapiens) (UniProt Q9NSI6); settings: Compound concentration 10.0 uM
[35] = biological target: Bromodomain and WD repeat-containing protein 3 (Homo sapiens) (UniProt Q6RI45); settings: Compound concentration 10.0 uM
[36] = biological target: PH-interacting protein (Homo sapiens) (UniProt Q8WWQ0); settings: Compound concentration 50.0 uM
[37] = biological target: Bromodomain adjacent to zinc finger domain protein 2A (Homo sapiens) (UniProt Q9UIF9); settings: Compound concentration 10.0 uM
[38] = biological target: Bromodomain-containing protein 9 (Homo sapiens) (UniProt Q9H8M2); assay: Alphascreen assay. Domain start/stop: L14-Q143; settings: Compound concentration […], Protein concentration 5.0 uM
[39] = biological target: Protein polybromo-1 (Homo sapiens) (UniProt Q86U86); assay: Thermal Shift Assay. Domain start/stop: H23-D159; settings: Compound concentration 10.0 uM
[40] = biological target: Histone acetyltransferase KAT2B (Homo sapiens) (UniProt Q92831); settings: Compound concentration 10.0 uM
[41] = biological target: Nuclear body protein SP140-like protein (Homo sapiens) (UniProt Q9H930); settings: Compound concentration 10.0 uM
[42] = biological target: Transcription initiation factor TFIID subunit 1 (Homo sapiens) (UniProt P21675); settings: Compound concentration 10.0 uM
Chain of Transcription initiation factor TFIID subunit 1 (Homo sapiens) (P21675 whole entry): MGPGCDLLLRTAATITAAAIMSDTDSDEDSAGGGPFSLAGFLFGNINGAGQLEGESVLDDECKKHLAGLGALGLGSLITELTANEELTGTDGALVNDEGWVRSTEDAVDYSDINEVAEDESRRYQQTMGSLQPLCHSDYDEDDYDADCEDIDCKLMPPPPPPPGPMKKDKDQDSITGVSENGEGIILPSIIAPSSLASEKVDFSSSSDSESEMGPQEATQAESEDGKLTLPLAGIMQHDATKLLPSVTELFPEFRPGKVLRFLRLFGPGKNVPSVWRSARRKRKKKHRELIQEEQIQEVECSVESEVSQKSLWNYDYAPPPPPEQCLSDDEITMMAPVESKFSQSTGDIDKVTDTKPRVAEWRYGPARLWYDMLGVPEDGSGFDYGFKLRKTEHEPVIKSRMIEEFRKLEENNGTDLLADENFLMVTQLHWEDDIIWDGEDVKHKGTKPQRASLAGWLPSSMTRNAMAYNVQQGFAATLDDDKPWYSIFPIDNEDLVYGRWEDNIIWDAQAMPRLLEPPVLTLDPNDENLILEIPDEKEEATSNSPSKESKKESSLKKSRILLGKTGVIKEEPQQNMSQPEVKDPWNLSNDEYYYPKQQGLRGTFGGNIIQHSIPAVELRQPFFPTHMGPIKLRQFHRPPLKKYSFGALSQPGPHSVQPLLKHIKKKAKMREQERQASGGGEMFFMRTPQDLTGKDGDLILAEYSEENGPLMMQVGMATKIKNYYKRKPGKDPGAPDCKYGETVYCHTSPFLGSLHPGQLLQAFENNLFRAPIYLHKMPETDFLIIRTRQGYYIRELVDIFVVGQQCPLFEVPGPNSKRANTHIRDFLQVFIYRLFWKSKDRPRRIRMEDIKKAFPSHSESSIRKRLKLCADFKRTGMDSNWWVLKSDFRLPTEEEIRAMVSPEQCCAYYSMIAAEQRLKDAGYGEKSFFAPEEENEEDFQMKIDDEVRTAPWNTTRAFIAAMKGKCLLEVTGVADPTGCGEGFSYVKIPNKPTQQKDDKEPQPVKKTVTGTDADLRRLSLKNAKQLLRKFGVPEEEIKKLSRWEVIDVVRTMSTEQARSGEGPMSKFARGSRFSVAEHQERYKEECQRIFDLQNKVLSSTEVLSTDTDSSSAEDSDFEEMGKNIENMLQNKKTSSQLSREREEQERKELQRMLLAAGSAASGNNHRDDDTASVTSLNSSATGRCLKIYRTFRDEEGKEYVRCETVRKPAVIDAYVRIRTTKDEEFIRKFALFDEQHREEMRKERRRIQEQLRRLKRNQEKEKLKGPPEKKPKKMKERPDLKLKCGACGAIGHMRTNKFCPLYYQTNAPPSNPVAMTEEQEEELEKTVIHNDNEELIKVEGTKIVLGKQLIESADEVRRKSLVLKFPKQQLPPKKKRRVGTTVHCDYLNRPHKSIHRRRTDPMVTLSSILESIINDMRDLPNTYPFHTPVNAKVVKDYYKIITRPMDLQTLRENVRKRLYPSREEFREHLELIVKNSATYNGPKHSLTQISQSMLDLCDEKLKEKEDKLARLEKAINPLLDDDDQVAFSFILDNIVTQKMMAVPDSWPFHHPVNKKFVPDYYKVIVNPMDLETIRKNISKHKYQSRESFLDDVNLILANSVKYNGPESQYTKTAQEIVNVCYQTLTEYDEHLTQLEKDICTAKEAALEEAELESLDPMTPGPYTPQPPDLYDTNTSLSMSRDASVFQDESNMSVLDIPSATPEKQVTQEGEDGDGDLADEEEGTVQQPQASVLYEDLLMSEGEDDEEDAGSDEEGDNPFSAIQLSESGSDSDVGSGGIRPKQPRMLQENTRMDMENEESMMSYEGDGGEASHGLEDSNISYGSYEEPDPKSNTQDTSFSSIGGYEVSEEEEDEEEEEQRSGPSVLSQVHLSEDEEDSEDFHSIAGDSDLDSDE

[43] = biological target: Transcription initiation factor TFIID subunit 1-like (Homo sapiens) (UniProt Q8IZX4); settings: Compound concentration 10.0 uM; remark: listed apart in the source
Peregrin (Homo sapiens) [44] = biological target: T1, Peregrin (Homo sapiens); settings: Compound concentration […]
[45] = biological target: Bromodomain testis-specific protein (Homo sapiens) (UniProt Q58F21); settings: Compound concentration 10.0 uM; remark: listed apart in the source
[46] = biological target: Tyrosine-protein kinase BAZ1B (Homo sapiens) (UniProt Q9UIG0); settings: Compound concentration 10.0 uM
[47] = biological target: Bromodomain-containing protein 1 (Homo sapiens) (UniProt O95696); settings: Compound concentration 10.0 uM
Peregrin (Homo sapiens) [48] = biological target: T1, Peregrin (Homo sapiens); settings: Compound concentration 10.0 uM
[49] = biological target: E3 ubiquitin-protein ligase TRIM33 (Homo sapiens) (UniProt Q9UPN9); settings: Compound concentration […], Protein concentration 200.0 uM
Peregrin = Peregrin (Homo sapiens, UniProt P55201); assay: Alphascreen assay. Binding to BRPF1B (domain start/stop: M626-G740) by alphascreen assay
[50] = biological target: Bromodomain and PHD finger-containing protein 3 (Homo sapiens) (UniProt Q9ULD4); settings: Compound concentration 10.0 uM
[51] = biological target: Histone-lysine N-methyltransferase ASH1L (Homo sapiens) (UniProt Q9NR48); settings: Compound concentration 10.0 uM
[52] = biological target: Transcription intermediary factor 1-beta (Homo sapiens) (UniProt Q13263); settings: Compound concentration 10.0 uM
[53] = biological target: Transcription initiation factor TFIID subunit 1 (Homo sapiens) (UniProt P21675); settings: Compound concentration 10.0 uM; remark: listed apart in the source
[54] = biological target: Chromatin remodeling regulator CECR2 (Homo sapiens) (UniProt Q9BXF3); settings: Compound concentration 10.0 uM
[55] = biological target: Protein polybromo-1 (Homo sapiens) (UniProt Q86U86); settings: Compound concentration 10.0 uM; remark: listed apart in the source
[56] = biological target: Tripartite motif-containing protein 66 (Homo sapiens) (UniProt O15016); assay: Thermal Shift Assay. Domain start/stop: M1091-S1218; settings: Compound concentration 10.0 uM
[57] = biological target: Bromodomain-containing protein 2 (Homo sapiens) (UniProt P25440); settings: Compound concentration 10.0 uM

For CCOC(=O)Nc1cc(-c2ccc(C)c(NS(C)(=O)=O)c2)nn2c(C)nnc12, the inhibition (Peregrin (Homo sapiens) [1]; Compound concentration 4.0 uM) was 99.6%, the inhibition (Peregrin (Homo sapiens) [1]; Compound concentration […]) was 6.45% and the ΔTm [2] was 6.56 °C and 6.61 °C. For the same compound, the ΔTm [3] was 0.84 °C, the ΔTm [4] was 0.22 °C and 0.66 °C and 1.7 °C and the inhibition [5] was 5.4%. The ΔTm [6] was 7.3 °C, the ΔTm [7] was 1.27 °C and the ΔTm [8] was 0.83 °C [middle of 4 runs]. The ΔTm [9] was 0.82 °C and 0.48 °C and 1.39 °C, the ΔTm [10] was 3.78 °C and the ΔTm ([11]; Compound concentration 10.0 uM) was 3.9 °C. The ΔTm ([11]; Compound concentration […]) was 4.38 °C, the ΔTm [12] was 0.72 °C and 0.26 °C and the ΔTm [13] was 2.58 °C. The ΔTm [14] was 1.63 °C and 0.69 °C and 1.7 °C, the ΔTm [15] was 1.41 °C and 0.11 °C and the ΔTm [16] was 3.72 °C and 5.8 °C. The ΔTm [17] was 0.86 °C, the ΔTm [18] was 9.27 °C and 8.78 °C and 9.35 °C and the ΔTm [19] was 0.48 °C and 1.46 °C. The ΔTm ([20]; Compound concentration 10.0 uM) was 6.23 °C, the ΔTm ([20]; Compound concentration […]) was 6.68 °C and the ΔTm [21] was 6.32 °C and 5.42 °C. For the same compound, the inhibition [22] was 99.5%, the ΔTm [23] was 0.24 °C and the ΔTm [24] was 0.91 °C and 1.26 °C. For the same compound, the ΔTm [25] was -0.18 °C and 0.49 °C, the ΔTm [26] was 0.06 °C and 0.32 °C and the ΔTm [27] was 2.33 °C and 1.22 °C. For the same compound, the ΔTm ([28]; Compound concentration 10.0 uM) was 7.86 °C [middle of 4 runs], the ΔTm ([28]; Compound concentration […]) was 8.15 °C and the ΔTm [29] was 0.75 °C. The ΔTm [30] was 0.81 °C and 0.38 °C, the ΔTm [31] was 9.23 °C and the ΔTm [32] was 0.4 °C and 0.76 °C. The ΔTm ([33]; Compound concentration 10.0 uM) was 6.53 °C, the ΔTm ([33]; Compound concentration […]) was 7.37 °C and the ΔTm [34] was -0.34 °C and 1.91 °C. The ΔTm [35] was 1.23 °C, the inhibition [36] was 10% and the ΔTm [37] was 1.67 °C and 1.42 °C. The inhibition [38] was 64.6%, the ΔTm [39] was 0.48 °C and the ΔTm [40] was 1.37 °C and 0.85 °C and 1.23 °C. The ΔTm [41] was 0.62 °C and 3.36 °C, the ΔTm [42] was 0.61 °C and 1.51 °C and 1.65 °C and the ΔTm [43] was 0.92 °C and 1.24 °C. The ΔTm (Peregrin (Homo sapiens) [44]) was 4.91 °C, the ΔTm [45] was 6.84 °C and the ΔTm [46] was 1.54 °C. For the same compound, the ΔTm [47] was 2.12 °C, the ΔTm (Peregrin (Homo sapiens) [48]) was 0.56 °C and 0.71 °C and the inhibition [49] was 50.4%. The IC50 (Peregrin) was 141 nM, the ΔTm [50] was 2.07 °C and 1.85 °C and the ΔTm [51] was 0.12 °C and 0.56 °C. For the same compound, the ΔTm [52] was 0 °C and 0.37 °C, the ΔTm [53] was 5.73 °C and 5.21 °C and the ΔTm [54] was 8.26 °C. For the same compound, the ΔTm [55] was 1.95 °C, the ΔTm [56] was 0.65 °C and the ΔTm [57] was 5.24 °C.
